In US9365851B2, “Spalt-like transcription factor 4 (SALL4) and uses thereof” (National University of Singapore, priority 2011, dated 2016):

Tests used:
primary human AML cells = test: Xenotransplantation of shRNA-transduced primary human AML cells into NSG mice; assay type: in vivo
Excerpt: The phenotype of wt peptide treatment was then compared with that of downregulation of SALL4 in primary AML cells. SALL4-specific shRNA (7210 and 7412, FIG. 6A) validated by previous studies were used for these experiments. FACS analysis with Annexin V/PI staining confirmed that there was a 2-fold increase in cell apoptosis and cell death in vitro in primary AML cells when SALL4 expression was reduced (FIG. 6B). In addition, there was an increased survival of leukemic recipient mice in vivo upon knocking down of SALL4 expression in these primary AML samples (FIG. 6C). 1.5×10^6 SALL4 shRNA or control retrovirus-treated primary human AML cells were transplanted into sublethally irradiated (1.0 Gy) NOD/SCID/IL2rγ-null mice by tail vein injection. Fatal AML with onset ranging from one to three months developed in all control recipient (7 out of 7) and some SALL4 shRNA recipient (2 out of 6) mice after transplantation. The transplanted leukemia disease was characterized by immature blasts with human CD45 expression in peripheral blood, bone marrow, and tissues such as liver and spleen (FIGS. 6C-6F). […] While the median survival of control recipient mice (N=7) was 33 days, the median survival of SALL4 shRNA recipient mice (N=6) was 109 days. Both the Log rank (also called Mantel-Cox, P=0.03 (FIG. 4H) and Gehan-Breslow-Wilcoxon (P=0.01)) tests were used for survival analysis and were statistically significant.
NSG (NOD.Cg-Prkdcscid Il2rgtm 1Wjl/SzJ, The Jackson Laboratory, ME, USA) mice were bred and maintained in the Children's Hospital Boston animal facility. All animal work has been approved by and done according to the guidelines of the IACUC under protocol 10-10-1832. Human primary AML cells exposed to various peptides or carrier only (1.0×10^6 cells per mouse) or transduced with SALL4-shRNA or control lentivirus (1.5×10^6 cell per mouse) were transplanted into 10- to 12-week old mice received 135 cGy sublethal irradiation 2-4 h before the injection via the dorsal tail vein. Mice were euthanized when they became ill or at 78 days post-transplantation. BM was removed from the two femurs by flushing with RPMI1640 medium, spleen cells were abstained by mincing and filtering through a cell strainer and peripheral blood was collected from the heart. […] The percentage of human CD45+ cells was calculated as follows: % human CD45+ cells=No. human CD45+ cells/(No. human CD45+ cells+No. mouse CD45+ cells)×100. […]
SALL4 is critical for leukemic cell survival in the AML cell line NB4 (Yang, et al., Blood, 112:805-813 (2008)). […] 48 hours after transduction, the viability of cells was determined by flow cytometry after staining with Annexin V and propidium iodide (PI). […]

KG1a = test: Cellular uptake of FITC-labeled peptide; assay type: cell-based
Description: (§1) Cells were grown typically in 6 well plates (35 mm dish) to 50-70% confluence. Usually the transfect ion efficiency is somehow cell type specific. 2 mM peptide was diluted 4 times in PBS (2 ul+6 ul) (For FITC peptidedo not dilute the 2 mM stock). For each transfection reaction tube with 100 ul PBS+1 ul diluted peptide was set up. Chariot reagent was diluted 1:10 in ddH2O and for each transfection a 94 ul H2O tube+6 ul diluted Chariot was prepared (No master mix for more than 4 transfections). The 2 tubes were carefully mixed by pipetting up and down and incubated 30 min. at room temperature. Medium was aspirated from the dish (well) and cells were overlay with the mix. 400 ul serum free medium was added and cells were incubated further for 1 h 37 C (cell incubator). 500 ul complete medium (with 10% serum) was finally added. If cells are not very sensitive to serum starvation (cancer cell lines) 5% serum could be used.
(§2) Fluorescent and Confocal microscopy was performed on cells treated with FITC labeled peptides with or without of transfection reagent depending on the cell type. Cells were mounted on cover slips using mounting media with DAPI (Invitrogen) and in some cases cytoskeleton dye (Invitrogen).
(§3) In order to evaluate their cellular uptake and localization, the N terminus of these peptides was labeled with fluorescein isothiocyanate (FITC). Despite the net positive charge of these peptides, their uptake by the cells is cell-type specific. Some cell lines such as HL-60 (an AML cell line) allowed the peptide to enter the cells without any modification or carrier, and some cell lines were not penetrable at all. In order to achieve a similar level of peptide delivery in most cell types, a Chariot Transfection Reagent (Active Motif) was used as a peptide carrier, as directed from the manufacturer. All cell types used in the study described herein were subjected to individual evaluation of the percentage of the cells in which the peptide was delivered as well as the duration of time during which they sustained the labeled peptide in the cells. After Chariot treatment, confocal microscopy studies confirmed uptake of these peptides throughout the cell, including nuclei (as evidenced by DAPI overlay, FIG. 1B).

MCF7 = test: Cellular uptake of FITC-labeled peptide; assay type: cell-based
Description: as §1, §2, §3

AML3 = test: Cellular uptake of FITC-labeled peptide; assay type: cell-based
Description: as §1, §2, §3

CD34+ = test: Cellular uptake of FITC-labeled peptide; assay type: cell-based
Description: as §1, §2, §3

NP4 = test: Cellular uptake of FITC-labeled peptide; assay type: cell-based
Description: as §1, §2, §3

HeLa = test: Cellular uptake of FITC-labeled peptide; assay type: cell-based
Description: as §1, §2, §3

peptide uptake (cells with peptide) (KG1a; no carrier) | peptide uptake (cells with peptide) (KG1a; with Chariot) | peptide uptake (cells with peptide) (MCF7; MCF7, no carrier) | peptide uptake (cells with peptide) (MCF7; MCF7, with Chariot) | peptide uptake (cells with peptide) (AML3; AML3, no carrier) | peptide uptake (cells with peptide) (AML3; AML3, with Chariot) | peptide uptake (cells with peptide) (CD34+; no carrier) | peptide uptake (cells with peptide) (CD34+; with Chariot) | peptide uptake (cells with peptide) (NP4; NP4, no carrier) | peptide uptake (cells with peptide) (NP4; NP4, with Chariot) | peptide uptake (cells with peptide) (HeLa; no carrier) | peptide uptake (cells with peptide) (HeLa; with Chariot) | Substance | recipient mice without leukemia / still healthy (primary human AML cells; four months after transplantation) | recipient mice that developed fatal AML / leukemia (primary human AML cells; mouse, in vivo) | human CD45 positive cells in non-leukemic recipients (primary human AML cells; peripheral blood, bone marrow or spleen) | median survival of recipient mice (primary human AML cells; transduced primary human AML cells, tail vein)
– | – | – | – | – | – | – | – | – | – | – | – | GATGCCTTGAAACAAGCCAAGCTACCTCA (chemistry not given here) [compound 7412, SALL4 shRNA used in primary AML cells] | four out of six | 2 out of 6 | less than 0.5% | 109 days
>10% | 60% | ~50% | 70% | ~5% | 50% | 0% | 50% | >1% | >5% | 0% | 80% | H-MSRRKQAKPQHI-OH [wt peptide, MSRRKQAKPQHI] | – | – | – | –
